In ChEMBL document CHEMBL1201862, “PubChem BioAssay data set” (2004):
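Protocol summary: plate cells (96-well), add compound at 5 concentrations, incubate 48 h, interpolate endpoints linearly. GI50 is the concentration that inhibits growth by half.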 The source made the active and inactive calls. Cut-off read from the data, not from the text of the source: active = GI50 up to about 1.1 µM and inactive = higher.

What was measured:
Experiment in all cases: growth of human tumour cells (NCI), 48 h
RXF 631 = test system: RXF 631
DMS-114 = test system: DMS-114
M19-MEL = test system: M19-MEL
LXFL 529 = test system: LXFL 529
DMS-273 = test system: DMS-273
HOP-18 = test system: HOP-18
SNB-78 = test system: SNB-78
XF498 = test system: XF498
BT-549 = test system: BT-549

Row | Compound | GI50 (RXF 631) | GI50 (DMS-114) | GI50 (M19-MEL) | GI50 (LXFL 529) | GI50 (DMS-273) | GI50 (HOP-18) | GI50 (SNB-78) | GI50 (XF498) | GI50 (BT-549)
1 | CN(C(=O)C12C3C4C5C3C1(C(=O)O)C5C42)C(C)(C)C (stereo unspecified) | > 100 µM (inactive) | 28.9 µM (inactive) | > 100 µM (inactive) | 74.8 µM (inactive) | 16.5 µM (inactive) | > 100 µM (inactive) | > 100 µM (inactive) | > 100 µM (inactive) | –
2 | CC[C@@]1(O)C(=O)OCc2c1c(Cl)c1n(c2=O)Cc2cc3ccccc3nc2-1 | 2.48 µM (inactive) | 1.35 µM (inactive) | 1.67 µM (inactive) | 8.15 µM (inactive) | 0.605 µM (active) | 3.21 µM (inactive) | 7.18 µM (inactive) | 3.07 µM (inactive) | 8.67 µM (inactive)
3 | C[n+]1c2ccccc2c(CNCC(=O)O)c2ccccc21 | – | 2.13 µM (inactive) | 4.43 µM (inactive) | 1.07 µM (active) | 0.646 µM (active) | 10.3 µM (inactive) | 11.3 µM (inactive) | 2.14 µM (inactive) | –
4 | Cn1c2ccccc2c(=O)c2c(O)cc3c(c21)CC(C1(C)CO1)O3 (stereo unspecified) | 3.61 µM (inactive) | 2.13 µM (inactive) | – | 0.229 µM (active) | 21.9 µM (inactive) | 32.3 µM (inactive) | – | 1.88 µM (inactive) | 1.67 µM (inactive)
5 | CCOC(=O)[C@H]1Nc2ccc(O)cc2C2c3ccccc3CC21 (stereo partly specified) | > 100 µM (inactive) | 56.2 µM (inactive) | 55.1 µM (inactive) | 42.6 µM (inactive) | 59.2 µM (inactive) | > 100 µM (inactive) | > 100 µM (inactive) | – | –
6 | COc1cccc(C2C(C(=O)Nc3cc(=O)n(C)c(=O)n3C)=C(C)NC(C)=C2C(=O)Nc2cc(=O)n(C)c(=O)n2C)c1O | > 100 µM (inactive) | > 100 µM (inactive) | > 100 µM (inactive) | > 100 µM (inactive) | – | – | > 100 µM (inactive) | > 100 µM (inactive) | –
7 | Cc1ccc(S(=O)(=O)C2CC2(Cl)Cl)cc1 (stereo unspecified) | 20.9 µM (inactive) | 19.7 µM (inactive) | 25.1 µM (inactive) | 18.9 µM (inactive) | 32.5 µM (inactive) | – | – | 21.2 µM (inactive) | –
8 | CCOc1ccc(NC(=O)CC2C(=O)Nc3ccccc3[S+]2[O-])cc1 (stereo unspecified) | > 84.9 µM (inactive) | – | > 100 µM (inactive) | > 80 µM (inactive) | > 67.1 µM (inactive) | > 100 µM (inactive) | > 100 µM (inactive) | 38.8 µM (inactive) | –
9 | CN(C)/N=N/c1ccc(S(N)(=O)=O)cc1 | – | > 100 µM (inactive) | > 100 µM (inactive) | – | > 100 µM (inactive) | > 100 µM (inactive) | – | > 100 µM (inactive) | –
10 | Cc1ccc(S(=O)(=O)NC2(C=O)CCC(C(C)(C)C)CC2)cc1 (stereo unspecified) | 31.8 µM (inactive) | 20.4 µM (inactive) | 24.7 µM (inactive) | > 100 µM (inactive) | 27.7 µM (inactive) | 29.2 µM (inactive) | > 100 µM (inactive) | 43.8 µM (inactive) | –
11 | N#CC1=C(c2ccccc2)OC2(N)OC(c3ccccc3)=C(C#N)C12C#N (stereo unspecified) | > 100 µM (inactive) | 51.5 µM (inactive) | > 100 µM (inactive) | 74 µM (inactive) | > 100 µM (inactive) | 21.6 µM (inactive) | > 100 µM (inactive) | > 100 µM (inactive) | –
12 | C[Si](C)(c1ccccc1)C1CC(=O)CC(=O)C1 | – | > 100 µM (inactive) | > 100 µM (inactive) | > 100 µM (inactive) | > 100 µM (inactive) | > 100 µM (inactive) | > 100 µM (inactive) | > 100 µM (inactive) | –
13 | COc1nc2c(c(O)c(C)c(=O)n2OC2OCC(OC(C)=O)C(OC(C)=O)C2OC(C)=O)c(=O)n1C (stereo unspecified) | – | > 100 µM (inactive) | > 100 µM (inactive) | > 100 µM (inactive) | > 100 µM (inactive) | – | > 100 µM (inactive) | > 100 µM (inactive) | –
